Values quoted from earlier work in patent publication US20070266895A1, “Aliphatic Hydrocarbon Soluble Red Dyes” (priority 2004, published 2007).

**Q.** Which “direct solubility in essentially aliphatic hydrocarbon based fuels” value (diesel or home heating oil) does the source give for Cc1ccccc1/N=N/c1ccc(/N=N/c2c(O)ccc3ccccc23)c(C)c1 [C.I. Solvent Red 24] here?
**A.** The value was “virtually no direct solubility”.

**Q.** What about the “direct solubility in aromatic hydrocarbon containing gasolines” value (dry powder dye) of the same compound?
**A.** The value was “limited direct solubility”.
